# EP4603105A1, “PHARMACEUTICAL COMPOSITION CONTAINING CYCLIC COMPOUND HAVING SELECTIVE KRAS INHIBITORY EFFECT AGAINST HRAS AND NRAS” (CHUGAI SEIYAKU KABUSHIKI KAISHA, priority 2022, dated 2024)
# Legend:
# [1] = molecular target: GDP-bound KRAS wild-type protein (Homo sapiens, UniProt P01116); assay: Binding to KRAS by surface plasmon resonance (SPR), dissociation constant KD
# Method in brief: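 Measured at 30°C: SPR with GDP-loaded, E. coli-expressed biotin-Avi RAS captured (~100–300 RU), ascending 75 s compound injections, HBS pH 7.4 with GDP, MgCl2, 4% DMSO. KD from 1:1 fit.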
# [2] = molecular target: GDP-bound NRAS wild-type protein (Homo sapiens, UniProt P01111); assay: Binding to NRAS by surface plasmon resonance (SPR), KD and KD ratio to KRAS
# Method in brief: (§1)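 Single-cycle kinetics on GDP-loaded biotin-Avi RAS captured to ~100–300 RU; 75 s ascending injections, 100 µL/min, 30°C. HBS pH 7.4 + 10 mM MgCl2/10 µM GDP/4% DMSO. 1:1 fit, KD.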
# HRAS wild-type protein = HRAS wild-type protein (Homo sapiens, UniProt P01112); assay: Binding to HRAS by surface plasmon resonance (SPR), KD and KD ratio to KRAS
# Method in brief: as §1
# [3] = test system: human lung cancer strain NCI-H441; type: cell-based
# Method in brief: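 Proliferation was scored by […] measured after the reagent was added to cultures kept at 37°C in 5% carbon dioxide.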
# [4] = ratio of KD for GDP-bound NRAS wild-type protein to KD for KRAS
# [5] = ratio of KD for HRAS wild-type protein to KD for KRAS
# GDP-bound KRAS wild-type protein, sequence (P01116 1-188 isoform P01116-2): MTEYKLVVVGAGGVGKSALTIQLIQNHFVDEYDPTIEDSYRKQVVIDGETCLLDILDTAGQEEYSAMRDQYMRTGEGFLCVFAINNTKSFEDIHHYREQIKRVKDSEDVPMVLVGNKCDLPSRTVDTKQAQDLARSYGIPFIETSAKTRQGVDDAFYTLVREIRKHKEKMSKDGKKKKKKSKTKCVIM
# GDP-bound NRAS wild-type protein, sequence (P01111 whole entry): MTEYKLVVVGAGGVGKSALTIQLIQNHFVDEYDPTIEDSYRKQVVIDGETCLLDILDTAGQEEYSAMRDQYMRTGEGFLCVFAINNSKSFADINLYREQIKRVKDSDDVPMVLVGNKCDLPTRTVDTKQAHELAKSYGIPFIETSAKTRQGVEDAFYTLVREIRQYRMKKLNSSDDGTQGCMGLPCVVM
# HRAS wild-type protein, sequence (P01112 whole entry): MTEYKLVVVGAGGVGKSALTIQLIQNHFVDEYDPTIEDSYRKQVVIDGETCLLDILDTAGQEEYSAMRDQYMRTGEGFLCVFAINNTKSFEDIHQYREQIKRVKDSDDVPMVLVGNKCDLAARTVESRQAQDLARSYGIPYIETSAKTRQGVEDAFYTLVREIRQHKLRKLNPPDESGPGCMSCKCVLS
Kd ([1]; Single Cycle Kinetics),IC50 [3],Kd ([1]; 1:1 binding model),"Kd ([1]; Single Cycle Kinetics, 1:1 binding model)",Compound,"NRAS /KRAS [2, 4]",HRAS /KRAS (HRAS wild-type protein; [5]),NRAS /KRAS ([2]; ratio of KD value for GDP-bound NRAS wild-type protein to KD value for KRAS (SPR)),HRAS /KRAS (HRAS wild-type protein; ratio of KD value for HRAS wild-type protein to KD value for KRAS (SPR))
0.58 nM,68.1 nM,–,–,CC[C@H](C)[C@@H]1NC(=O)[C@H](CC(C)C)N(C)C(=O)C[C@@H](C)N(C)C(=O)[C@H](C2CCCC2)N(C)C(=O)C2(CCC2)NC(=O)[C@@H]2CCCN2C(=O)[C@H](CCc2cc(F)c(C(F)(F)F)c(F)c2)NC(=O)CN(C)C(=O)[C@H](Cc2ccc(C(F)(F)F)cc2)N2CC/C=C\C[C@@H](C2=O)N(C)C(=O)CN(C)C1=O [PP1099],B (a compound having 3 or more and less than 10 is denoted as B),A (a compound having 10 or more and less than 20 is denoted as A),–,–
–,88.5 nM,2.1 nM,–,CCO[C@@H]1C[C@H]2C(=O)NC3(CC(C)(C)C3)C(=O)N(C)[C@@H](C3CCCC3)C(=O)N(C)[C@H](C(=O)N(C)CC)CC(=O)N(C)[C@@H](CC(C)C)C(=O)N[C@@H]([C@@H](C)CC)C(=O)N(C)CC(=O)N(C)[C@H]3C/C=C\CCN(C3=O)[C@@H](Cc3ccc(C(F)F)cc3)C(=O)N(C)CC(=O)N[C@@H](CCc3ccc(CC)c(F)c3)C(=O)N2C1 [PP3157],A (a compound having 10 or more and less than 20 is denoted as A),A (a compound having 10 or more and less than 20 is denoted as A),–,–
–,22.2 nM,0.41 nM,–,CCO[C@@H]1C[C@H]2C(=O)NC3(CC(C)(C)C3)C(=O)N(C)[C@@H](C3CCCC3)C(=O)N(C)[C@H](C(=O)N(C)C)CC(=O)N(C)[C@@H]([C@H](C)OC)C(=O)N[C@@H]([C@@H](C)CC)C(=O)N(C3CC3)CC(=O)N(C)[C@H]3C/C=C\CCN(C3=O)[C@@H](Cc3ccc(C)cc3)C(=O)N(C)CC(=O)N[C@@H](CCc3ccc(C(F)(F)F)c(Cl)c3)C(=O)N2C1 [PP3195],A (a compound having 10 or more and less than 20 is denoted as A),A (a compound having 10 or more and less than 20 is denoted as A),–,–
–,620 nM,2 nM,–,CCO[C@@H]1C[C@H]2C(=O)NC3(CC(C)(C)C3)C(=O)N(C)[C@@H](C3CCCC3)C(=O)N(C)[C@H](C(=O)N(C)CC)CC(=O)N(C)[C@@H](CC(C)C)C(=O)N[C@@H]([C@@H](C)CC)C(=O)N(C)CC(=O)N(C)[C@H]3C/C=C\CCN(C3=O)[C@@H](Cc3ccc(C(F)F)cc3)C(=O)N(C)CC(=O)N[C@@H](CCc3ccc4c(c3)CCC4(F)F)C(=O)N2C1 [PP3152],AA (a compound having 20 or more is denoted as AA),A (a compound having 10 or more and less than 20 is denoted as A),–,–
–,8.9 nM,0.32 nM,–,CCC(CC)[C@H]1C(=O)N(C)[C@H](C(=O)N(C)C)CC(=O)N(C)[C@@H](COC)C(=O)N[C@@H]([C@@H](C)CC)C(=O)N(C)CC(=O)N(C)[C@H]2C/C=C\CCN(C2=O)[C@@H](Cc2ccc(C)cc2)C(=O)N(C)CC(=O)N[C@@H](CCc2cc(F)c(C(F)(F)F)c(F)c2)C(=O)N2CCCCC[C@H]2C(=O)NC2(CC(C)(C)C2)C(=O)N1C [PP2960],A (a compound having 10 or more and less than 20 is denoted as A),A (a compound having 10 or more and less than 20 is denoted as A),–,–
–,132 nM,–,1.7 nM,CCO[C@@H]1C[C@H]2C(=O)NC3(CCC3)C(=O)N(C)[C@@H](C(CC)CC)C(=O)N(C)[C@H](C)CC(=O)N(C)[C@@H](CC(C)C)C(=O)N[C@@H]([C@@H](C)CC)C(=O)N(C)CC(=O)N(C)[C@H]3C/C=C\CCN(C3=O)[C@@H](Cc3ccc(F)cc3)C(=O)N(C)CC(=O)N[C@@H](CCc3cc(F)c(C(F)(F)F)c(F)c3)C(=O)N2C1 [PP1525],–,–,A (a compound having 10 or more and less than 20 is denoted as A),A (a compound having 10 or more and less than 20 is denoted as A)
0.76 nM,296 nM,–,–,CCO[C@@H]1C[C@H]2C(=O)NC3(CCC3)C(=O)N(C)[C@@H](C3CCCC3)C(=O)N(C)[C@H](C(=O)N(C)C)CC(=O)N(CC)[C@@H](CC(C)C)C(=O)N[C@@H]([C@@H](C)CC)C(=O)N(C)CC(=O)N(C)[C@H]3CC(C)=CCN(C3=O)[C@@H](Cc3ccc(C(F)(F)F)cc3)C(=O)N(C)CC(=O)N[C@@H](CCc3cc(F)c(C(F)(F)F)c(F)c3)C(=O)N2C1 [PP1037],C (A compound having a KD ratio of 0.1 or more and less than 3 is denoted as C),C (A compound having a KD ratio of 0.1 or more and less than 3 is denoted as C),–,–
